From patent US11739098B2 (BRISTOL-MYERS SQUIBB COMPANY, priority 2017, dated 2023)
pIC50: −log10 of the molar value.

Key:
Format in all cases: cell-based
human TLR7 = target: T1, human TLR7 (Homo sapiens, UniProt Q9NYK1); assay: TLR7 inhibition reporter assay (HEK-Blue cells, SEAP reporter, gardiquimod stimulation); settings: HEK-Blue cells overexpressing human TLR7, SEAP reporter, gardiquimod 7.5 μM
T1 construct: host or cells: HEK-Blue cells (HEK293-derived reporter line)
T1 sequence (Q9NYK1 27-1049): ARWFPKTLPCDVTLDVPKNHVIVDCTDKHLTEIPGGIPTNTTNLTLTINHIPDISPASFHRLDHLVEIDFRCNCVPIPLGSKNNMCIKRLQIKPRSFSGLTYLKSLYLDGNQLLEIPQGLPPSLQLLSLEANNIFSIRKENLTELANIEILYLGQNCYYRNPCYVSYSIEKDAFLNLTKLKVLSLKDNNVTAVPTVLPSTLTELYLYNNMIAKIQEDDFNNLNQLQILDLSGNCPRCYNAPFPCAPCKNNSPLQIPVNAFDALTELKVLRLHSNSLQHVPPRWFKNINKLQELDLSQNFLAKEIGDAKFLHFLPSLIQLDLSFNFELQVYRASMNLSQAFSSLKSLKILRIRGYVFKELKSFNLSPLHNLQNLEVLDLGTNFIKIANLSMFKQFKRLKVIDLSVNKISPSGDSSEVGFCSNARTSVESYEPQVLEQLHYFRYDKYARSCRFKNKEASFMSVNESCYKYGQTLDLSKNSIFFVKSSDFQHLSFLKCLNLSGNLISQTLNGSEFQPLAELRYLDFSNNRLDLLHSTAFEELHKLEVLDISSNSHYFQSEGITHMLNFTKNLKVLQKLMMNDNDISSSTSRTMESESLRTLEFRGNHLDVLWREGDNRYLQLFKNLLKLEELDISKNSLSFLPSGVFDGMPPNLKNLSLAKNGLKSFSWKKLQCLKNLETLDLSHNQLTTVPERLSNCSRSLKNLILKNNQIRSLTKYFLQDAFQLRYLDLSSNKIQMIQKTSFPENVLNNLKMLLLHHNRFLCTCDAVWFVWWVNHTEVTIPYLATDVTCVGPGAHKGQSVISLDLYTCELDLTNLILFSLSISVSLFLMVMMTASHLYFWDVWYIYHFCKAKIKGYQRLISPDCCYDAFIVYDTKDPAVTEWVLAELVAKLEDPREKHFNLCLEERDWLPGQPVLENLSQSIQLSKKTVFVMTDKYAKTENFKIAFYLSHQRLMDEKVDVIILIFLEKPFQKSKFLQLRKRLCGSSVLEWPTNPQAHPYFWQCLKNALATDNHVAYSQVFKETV
Summary of the method: (§1)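 HEK-Blue cells overexpressing human TLR7, TLR8 or TLR9 (NF-κB/AP-1-driven SEAP) pre-treated 30 min at room temperature with compound (0.05 nM–50 μM), then stimulated with gardiquimod 7.5 μM (TLR7), R848 15.9 μM (TLR8) or ODN2006 5 nM (TLR9). SEAP read colorimetrically after 22 h at 37 °C; % inhibition calculated.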

human TLR9 = target: T2, human TLR9 (Homo sapiens, UniProt Q9NR96); assay: TLR9 inhibition reporter assay (HEK-Blue cells, SEAP reporter, ODN2006 stimulation); settings: HEK-Blue cells overexpressing human TLR9, SEAP reporter, ODN2006 5 nM
T2 construct: host or cells: HEK-Blue cells (HEK293-derived reporter line)
T2 sequence (Q9NR96 26-1032): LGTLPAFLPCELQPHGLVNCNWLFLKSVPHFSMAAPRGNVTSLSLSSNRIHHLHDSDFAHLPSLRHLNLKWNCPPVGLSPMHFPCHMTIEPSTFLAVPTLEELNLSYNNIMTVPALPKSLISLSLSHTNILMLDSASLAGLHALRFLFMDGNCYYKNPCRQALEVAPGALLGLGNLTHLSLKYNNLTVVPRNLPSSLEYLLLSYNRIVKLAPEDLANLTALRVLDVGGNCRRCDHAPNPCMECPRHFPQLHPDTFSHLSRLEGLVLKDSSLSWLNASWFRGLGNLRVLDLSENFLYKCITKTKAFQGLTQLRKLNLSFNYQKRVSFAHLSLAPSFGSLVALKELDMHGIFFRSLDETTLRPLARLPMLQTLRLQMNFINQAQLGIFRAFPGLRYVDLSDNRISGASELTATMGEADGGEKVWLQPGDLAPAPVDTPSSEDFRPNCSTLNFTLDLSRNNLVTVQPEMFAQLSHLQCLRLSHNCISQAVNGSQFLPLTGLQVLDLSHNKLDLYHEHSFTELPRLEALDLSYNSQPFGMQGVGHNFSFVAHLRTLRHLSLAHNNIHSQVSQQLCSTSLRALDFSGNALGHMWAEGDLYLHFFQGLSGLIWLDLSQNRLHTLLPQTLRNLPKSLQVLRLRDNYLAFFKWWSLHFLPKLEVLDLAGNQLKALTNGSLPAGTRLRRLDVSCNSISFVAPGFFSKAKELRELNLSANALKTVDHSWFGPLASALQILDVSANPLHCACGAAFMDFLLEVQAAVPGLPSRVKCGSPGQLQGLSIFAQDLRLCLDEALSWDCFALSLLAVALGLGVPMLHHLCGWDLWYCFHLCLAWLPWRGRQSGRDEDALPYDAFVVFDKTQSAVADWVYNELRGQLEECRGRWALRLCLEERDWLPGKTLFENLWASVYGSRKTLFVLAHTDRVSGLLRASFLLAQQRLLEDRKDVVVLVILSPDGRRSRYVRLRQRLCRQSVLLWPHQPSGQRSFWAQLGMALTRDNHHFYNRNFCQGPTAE
Summary of the method: as §1

human TLR8 = target: T3, human TLR8 (Homo sapiens, UniProt Q9NR97); assay: TLR8 inhibition reporter assay (HEK-Blue cells, SEAP reporter, R848 stimulation); settings: HEK-Blue cells overexpressing human TLR8, SEAP reporter, R848 15.9 μM
T3 construct: host or cells: HEK-Blue cells (HEK293-derived reporter line)
T3 sequence (Q9NR97 27-1041): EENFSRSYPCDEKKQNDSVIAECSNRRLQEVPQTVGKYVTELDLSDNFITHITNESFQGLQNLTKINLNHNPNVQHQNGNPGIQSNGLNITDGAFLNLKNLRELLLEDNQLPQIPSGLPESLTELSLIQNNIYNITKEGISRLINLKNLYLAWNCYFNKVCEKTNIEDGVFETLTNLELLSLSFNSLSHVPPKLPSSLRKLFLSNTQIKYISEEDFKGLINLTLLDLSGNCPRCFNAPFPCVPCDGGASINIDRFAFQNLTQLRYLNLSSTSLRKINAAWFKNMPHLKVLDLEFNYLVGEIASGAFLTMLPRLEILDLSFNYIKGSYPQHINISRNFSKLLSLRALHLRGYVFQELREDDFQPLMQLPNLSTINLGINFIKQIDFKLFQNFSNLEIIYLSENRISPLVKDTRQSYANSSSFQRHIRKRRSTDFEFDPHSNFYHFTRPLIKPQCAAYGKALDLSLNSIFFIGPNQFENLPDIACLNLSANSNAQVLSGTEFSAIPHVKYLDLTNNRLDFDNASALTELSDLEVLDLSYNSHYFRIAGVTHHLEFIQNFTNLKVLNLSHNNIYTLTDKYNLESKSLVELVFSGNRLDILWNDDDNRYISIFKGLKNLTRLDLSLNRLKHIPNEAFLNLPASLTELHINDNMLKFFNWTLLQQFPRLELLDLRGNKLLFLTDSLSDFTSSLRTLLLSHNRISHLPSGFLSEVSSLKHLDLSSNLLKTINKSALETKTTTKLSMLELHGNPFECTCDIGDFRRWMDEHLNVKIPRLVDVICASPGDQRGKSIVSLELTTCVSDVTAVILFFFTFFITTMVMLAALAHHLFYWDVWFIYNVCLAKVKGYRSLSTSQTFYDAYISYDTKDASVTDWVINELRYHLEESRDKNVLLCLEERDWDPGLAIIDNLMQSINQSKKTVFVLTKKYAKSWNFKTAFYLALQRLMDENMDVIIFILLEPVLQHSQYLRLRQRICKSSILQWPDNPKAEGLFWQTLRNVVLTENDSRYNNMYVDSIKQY
Summary of the method: as §1

pIC50 (human TLR7) | pIC50 (human TLR9) | pIC50 (human TLR8) | Compound
> 7.00 | 4.30 to 6.00 | > 7.00 | Cc1ccc(-c2[nH]c3ccc(C4CCN(CC(C)(C)O)CC4)cc3c2C(C)C)c2ncnn12 [Example 769, 1-(4-(3-isopropyl-2-(5-methyl-[1,2,4]triazolo[1,5-a]pyridin-8-yl)-1H-indol-5-yl)piperidin-1-yl)-2-methylpropan-2-ol]
4.30 to 6.00 | 4.30 to 6.00 | < 4.30 | CCc1c(-c2cccc3c2cnn3C)[nH]c2ccc(C3CCNCC3)cc12 [Example 100, 4-(3-ethyl-5-(piperidin-4-yl)-1H-indol-2-yl)-1-methyl-1H-indazole]
> 7.00 | 4.30 to 6.00 | > 7.00 | COCCN1CCC(c2ccc3[nH]c(-c4ccc(C#N)c5ncccc45)c(C(C)C)c3c2)CC1 [Example 778, 5-(3-isopropyl-5-(1-(2-methoxyethyl)piperidin-4-yl)-1H-indol-2-yl)quinoline-8-carbonitrile]
> 7.00 | 6.00 to 7.00 | > 7.00 | CC(C)c1c(-c2ccc3nccn3c2)[nH]c2ccc(C3CCN(C(C)C)CC3)cc12 [Example 946, 6-(3-isopropyl-5-(1-isopropylpiperidin-4-yl)-1H-indol-2-yl)imidazo[1,2-a]pyridine]
> 7.00 | 4.30 to 6.00 | > 7.00 | Cc1cc(-c2[nH]c3ccc(C4CCN(C(=O)C[C@@H](C)O)CC4)cc3c2C(C)C)cn2nnnc12 [Example 594, (R)-3-hydroxy-1-(4-(3-isopropyl-2-(8-methyltetrazolo[1,5-a]pyridin-6-yl)-1H-indol-5-yl)piperidin-1-yl)butan-1-one]
> 7.00 | 6.00 to 7.00 | 6.00 to 7.00 | CC(C)c1c(-c2cc(C(C)(C)O)c3nccn3c2)[nH]c2ccc(C3CCN(CC(=O)N(C)C)CC3)cc12 [Example 343, 2-(4-(2-(8-(2-hydroxypropan-2-yl)imidazo[1,2-a]pyridin-6-yl)-3-isopropyl-1H-indol-5-yl)piperidin-1-yl)-N,N-dimethylacetamide]
> 7.00 | 6.00 to 7.00 | 6.00 to 7.00 | CC(C)c1c(-c2ccn3cnnc3c2)[nH]c2ccc(C3CCN(C(=O)CN(C)C)CC3)cc12 [Example 466, 1-(4-(2-([1,2,4]triazolo[4,3-a]pyridin-7-yl)-3-isopropyl-1H-indol-5-yl)piperidin-1-yl)-2-(dimethylamino)ethan-1-one]
> 7.00 | 6.00 to 7.00 | > 7.00 | Cc1c(-c2[nH]c3ccc(C4CCN(CC(=O)N(C)C)CC4)cc3c2C(C)C)cn2ccnc2c1C [Example 412, 2-(4-(2-(7,8-dimethylimidazo[1,2-a]pyridin-6-yl)-3-isopropyl-1H-indol-5-yl)piperidin-1-yl)-N,N-dimethylacetamide]
> 7.00 | 6.00 to 7.00 | > 7.00 | FC(F)Cc1c(-c2ccnc3[nH]ccc23)[nH]c2ccc(C3CCNCC3)cc12 [Example 205, 4-(3-(2,2-difluoroethyl)-5-(piperidin-4-yl)-1H-indol-2-yl)-1H-pyrrolo [2,3-b]pyridine]
> 7.00 | 6.00 to 7.00 | > 7.00 | CC(C)c1c(-c2ccc3onc(N)c3c2)[nH]c2ccc(C3CCNCC3)cc12 [Example 7, 5-(3-isopropyl-5-(piperidin-4-yl)-1H-indol-2-yl)benzo[d]isoxazol-3-amine]
> 7.00 | < 4.30 | 6.00 to 7.00 | Cc1cc(-c2[nH]c3ccc(C4CCN(C(=O)CCN5CCS(=O)(=O)CC5)CC4)cc3c2C(C)C)cn2nnnc12 [Example 634, 3-(1,1-dioxidothiomorpholino)-1-(4-(3-isopropyl-2-(8-methyltetrazolo[1,5-a]pyridin-6-yl)-1H-indol-5-yl)piperidin-1-yl)propan-1-one]
> 7.00 | 4.30 to 6.00 | > 7.00 | CC(C)c1c(-c2ccnc3[nH]ncc23)[nH]c2ccc(C3CCN(Cc4ncc[nH]4)CC3)cc12 [Example 914, 4-(5-(1-((1H-imidazol-2-yl)methyl)piperidin-4-yl)-3-isopropyl-1H-indol-2-yl)-1H-pyrazolo[3,4-b]pyridine]
> 7.00 | 6.00 to 7.00 | > 7.00 | CC(C)c1c(-c2ccnc3[nH]ncc23)[nH]c2ccc(C3CCN(C4CCNCC4C)CC3)cc12 (stereo not drawn) [Example 834, 4-(3-isopropyl-5-(3′-methyl-[1,4′-bipiperidin]-4-yl)-1H-indol-2-yl)-1H-pyrazolo[3,4-b]pyridine]
> 7.00 | 6.00 to 7.00 | > 7.00 | Cc1nnn2ccc(-c3[nH]c4ccc(C5CCNCC5)cc4c3C(C)C)cc12 [Example 77, 5-(3-isopropyl-5-(piperidin-4-yl)-1H-indol-2-yl)-3-methyl-[1,2,3]triazolo[1,5-a]pyridine]
> 7.00 | 6.00 to 7.00 | > 7.00 | COc1c(C)c(-c2[nH]c3ccc(C4CCNCC4)cc3c2C(C)C)nn2ncnc12 [Example 33, 6-(3-isopropyl-5-(piperidin-4-yl)-1H-indol-2-yl)-8-methoxy-7-methyl-[1,2,4]triazolo[1,5-b]pyridazine]
